Measurements: the supplement of paper PMC10307832

Experiments:
Test in all cases: relative viability (nuclei count vs DMSO), 5 days (fraction); higher = more cells survive
EBC-1 = test system: EBC-1
Method in brief: (§1)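 Relative viability equals treated-well nuclei counts divided by vehicle-well nuclei counts. Counts came from 4× images of lung cancer cell lines grown in 1536-well plates for 5 days after pin-tool dosing on the day after seeding. Dosing used one drug alone or a fixed anchor-drug dose plus five library-drug doses (not always all listed) in √10 steps, and values are medians of duplicate plates.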

HCC-366 = test system: HCC-366
Method in brief: as §1

NCI-H1703 = test system: NCI-H1703
Method in brief: as §1

LXF-289 = test system: LXF-289
Method in brief: as §1

A549 = test system: A549
Method in brief: as §1

HCC-44 = test system: HCC-44
Method in brief: as §1

LOU-NH91 = test system: LOU-NH91
Method in brief: as §1

NCI-H3122 = test system: NCI-H3122
Method in brief: as §1

NCI-H1299 = test system: NCI-H1299
Method in brief: as §1

NCI-H2085 = test system: NCI-H2085
Method in brief: as §1

IA-LM = test system: IA-LM
Method in brief: as §1

Calu-6 = test system: Calu-6
Method in brief: as §1

NCI-H1437 = test system: NCI-H1437
Method in brief: as §1

Nc1ccn([C@@H]2O[C@H](CO)[C@@H](O)[C@@H]2O)c(=O)n1 [Cytarabine] + C[C@]1(O)C[C@@H](c2nc(-c3ccc4ccc(-c5ccccc5)nc4c3)c3c(N)nccn32)C1 [Linsitinib] (partner 1 µM)
relative viability (EBC-1; first compound 0.005 µM): 0.742
relative viability (EBC-1; first compound 0.01581 µM): 0.815
relative viability (EBC-1; first compound 0.05 µM): 0.614
relative viability (EBC-1; first compound 0.1581 µM): 0.461
relative viability (EBC-1; first compound 0.5 µM): 0.296
relative viability (HCC-366; first compound 0.005 µM): 0.725
relative viability (HCC-366; first compound 0.01581 µM): 0.393
relative viability (HCC-366; first compound 0.05 µM): 0.178
relative viability (HCC-366; first compound 0.1581 µM): 0.0468
relative viability (HCC-366; first compound 0.5 µM): 0.0253
relative viability (NCI-H1703; first compound 0.005 µM): 0.339
relative viability (NCI-H1703; first compound 0.01581 µM): 0.346
relative viability (NCI-H1703; first compound 0.05 µM): 0.166
relative viability (NCI-H1703; first compound 0.1581 µM): 0.107
relative viability (NCI-H1703; first compound 0.5 µM): 0.0904
relative viability (LXF-289; first compound 0.005 µM): 0.859
relative viability (LXF-289; first compound 0.01581 µM): 0.945
relative viability (LXF-289; first compound 0.05 µM): 0.786
relative viability (LXF-289; first compound 0.1581 µM): 0.493
relative viability (LXF-289; first compound 0.5 µM): 0.279
relative viability (A549; first compound 0.005 µM): 0.579
relative viability (A549; first compound 0.01581 µM): 0.499
relative viability (A549; first compound 0.05 µM): 0.407
relative viability (A549; first compound 0.1581 µM): 0.0819
relative viability (A549; first compound 0.5 µM): 0.0375
relative viability (HCC-44; first compound 0.005 µM): 0.675
relative viability (HCC-44; first compound 0.01581 µM): 0.664
relative viability (HCC-44; first compound 0.05 µM): 0.384
relative viability (HCC-44; first compound 0.1581 µM): 0.48
relative viability (HCC-44; first compound 0.5 µM): 0.397
relative viability (LOU-NH91; first compound 0.005 µM): 0.996
relative viability (LOU-NH91; first compound 0.01581 µM): 0.904
relative viability (LOU-NH91; first compound 0.05 µM): 0.82
relative viability (LOU-NH91; first compound 0.1581 µM): 0.54
relative viability (LOU-NH91; first compound 0.5 µM): 0.566
relative viability (NCI-H3122; first compound 0.005 µM): 0.995
relative viability (NCI-H3122; first compound 0.01581 µM): 0.893
relative viability (NCI-H3122; first compound 0.05 µM): 0.948
relative viability (NCI-H3122; first compound 0.1581 µM): 0.72
relative viability (NCI-H3122; first compound 0.5 µM): 0.476
relative viability (NCI-H1299; first compound 0.005 µM): 0.928
relative viability (NCI-H1299; first compound 0.01581 µM): 1.07
relative viability (NCI-H1299; first compound 0.05 µM): 1
relative viability (NCI-H1299; first compound 0.1581 µM): 1.05
relative viability (NCI-H1299; first compound 0.5 µM): 0.886
relative viability (NCI-H2085; first compound 0.005 µM): 0.677
relative viability (NCI-H2085; first compound 0.01581 µM): 0.89
relative viability (NCI-H2085; first compound 0.05 µM): 0.859
relative viability (NCI-H2085; first compound 0.1581 µM): 0.585
relative viability (NCI-H2085; first compound 0.5 µM): 0.55
relative viability (IA-LM; first compound 0.005 µM): 0.326
relative viability (IA-LM; first compound 0.01581 µM): 0.763
relative viability (IA-LM; first compound 0.05 µM): 0.357
relative viability (IA-LM; first compound 0.1581 µM): 0.243
relative viability (IA-LM; first compound 0.5 µM): 0.201
relative viability (Calu-6; first compound 0.005 µM): 0.928
relative viability (Calu-6; first compound 0.01581 µM): 0.871
relative viability (Calu-6; first compound 0.05 µM): 0.734
relative viability (Calu-6; first compound 0.1581 µM): 0.444
relative viability (Calu-6; first compound 0.5 µM): 0.283
relative viability (NCI-H1437; first compound 0.005 µM): 0.746
relative viability (NCI-H1437; first compound 0.01581 µM): 0.678
relative viability (NCI-H1437; first compound 0.05 µM): 0.477
relative viability (NCI-H1437; first compound 0.1581 µM): 0.19
relative viability (NCI-H1437; first compound 0.5 µM): 0.147
